This is an account of results in patent publication US20130184222A1, “[…] ACTIVE COMPOSITIONS AND THEIR METHODS OF USE” (AGIOS PHARMACEUTICALS, INC, priority 2010, published 2013).

Where only a bound is given, the exact number is not on record here.

The assay addresses IDH1 R132H (Homo sapiens, UniProt O75874, R132H). The experiment in a line: In vitro assay for IDH1 R132H inhibitors (NADPH/aKG, resazurin detection). It is filed as biochemical. The following applies: Table 4A; 0.2 μg/ml IDH1 R132H, 50 minutes at room temperature; read-out: IC50 (uM), IDH1 R132H Inhibition. As for the experimental part:
Assays were conducted in a volume of 76 μl assay buffer (150 mM NaCl, 10 mM MgCl2, 20 mM Tris pH 7.5, 0.03% bovine serum albumin) as follows in a standard 384-well plate: To 25 ul of substrate mix (8 uM NADPH, 2 mM aKG), 1 μl of test compound was added in DMSO. The plate was centrifuged briefly, and then 25 μl of enzyme mix was added (0.2 μg/ml IDH1 R132H) followed by a brief centrifugation and shake at 100 RPM. The reaction was incubated for 50 minutes at room temperature, then 25 μl of detection mix (30 μM resazurin, […]) was added and the mixture further incubated for 5 minutes at room temperature. The conversion of resazurin to resorufin was detected by fluorescent spectroscopy at Ex544 Em590 c/o 590.
The compounds of Formula I set forth in Table 1 and the compounds set forth in Table 2 were tested in this assay and the results set forth below in Table 4A and 4B.

IDH1 R132H, sequence (O75874 whole entry R132H): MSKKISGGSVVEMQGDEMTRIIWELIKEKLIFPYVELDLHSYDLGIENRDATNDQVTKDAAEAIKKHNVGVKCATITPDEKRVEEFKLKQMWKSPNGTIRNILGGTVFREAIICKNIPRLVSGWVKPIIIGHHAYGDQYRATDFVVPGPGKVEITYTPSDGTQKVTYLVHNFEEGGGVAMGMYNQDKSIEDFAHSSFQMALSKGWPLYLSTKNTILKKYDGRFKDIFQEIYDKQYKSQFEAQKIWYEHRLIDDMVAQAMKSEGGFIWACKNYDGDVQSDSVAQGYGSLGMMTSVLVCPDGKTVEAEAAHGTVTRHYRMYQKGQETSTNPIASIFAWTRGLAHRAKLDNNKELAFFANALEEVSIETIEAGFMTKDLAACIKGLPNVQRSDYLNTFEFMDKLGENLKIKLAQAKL

Take `Cc1ccccc1[C@@H](C(=O)NC1CCCCC1)N(C(=O)Cc1cccs1)c1cccc(F)c1` (single isomer, unassigned) [Compound 54]: the half-inhibitory concentration (IC50) is not above 0.1 µM.
In the case of `COc1cccc(N(C(=O)Cc2cccs2)C(C(=O)NC2CCCC2)c2ccccc2)c1` (centres unmarked) [Compound 1], the IC50 fell in the range of 0.1 to 1 µM.
The result for `O=C(NC1CCCC1)C(c1ccccc1Cl)N(C(=O)Cc1cccs1)c1ccccc1F` (centres unmarked) [Compound 2] reads 0.1 to 1 µM.
Turning to `COc1cccc(N(C(=O)Cc2cccs2)C(C(=O)NC2CCCC2)c2ccccc2Cl)c1` (centres unmarked) [Compound 3], the IC50 lay within 0.1 to 1 µM.
The result for `O=C(NC1CCCCC1)C(c1ccccc1Cl)N(C(=O)c1ccccn1)c1ccccc1` (centres unmarked) [Compound 4] reads 0.1 to 1 µM.
Regarding `Cc1ccccc1C(C(=O)NC1CCCC1)N(C(=O)Cn1nnc2ccccc21)c1ccccc1F` (centres unmarked) [Compound 5], the half-maximal inhibitory concentration (IC50) fell in the range of 0.1 to 1 µM.
Regarding `O=C(NC1CCCC1)C(c1ccccc1F)N(C(=O)Cc1cccs1)c1ccc2c(c1)OCO2` (centres unmarked) [Compound 6], the IC50 is 0.1 to 1 µM.
On to `Cc1ccc(N(C(=O)c2ccccn2)C(C(=O)NC2CCCCC2)c2ccccc2)cc1F` (centres unmarked) [Compound 7], for which the IC50 lay in the range of 1 to 10 µM.
Regarding `Cc1ccccc1C(C(=O)NC1CCCC1)N(C(=O)Cc1cccs1)c1cccc(F)c1` (centres unmarked) [Compound 8], the IC50 was not above 0.1 µM.
The figure for `Cc1ccc(N(C(=O)c2sc(C)nc2C)C(C(=O)NC2CCCC2)c2ccccc2)cc1` (centres unmarked) [Compound 9] is 1 to 10 µM; for `O=C(NC1CCCCC1)C(c1ccccc1F)N(C(=O)CNS(=O)(=O)c1ccccc1)c1ccccc1F` (centres unmarked) [Compound 10] it is 0.1 to 1 µM.
As to `CC(C)(C)NC(=O)C(c1ccccc1)N(C(=O)Cc1cccs1)c1ccccc1` (centres unmarked) [Compound 11], the half-maximal inhibitory concentration (IC50) is 1 to 10 µM.
The result for `CC(C(=O)NCc1ccccc1)(c1cccc(F)c1)N(C(=O)Cc1cccs1)c1ccccc1` (centres unmarked) [Compound 12] reads 10 to 100 µM; that for `Cc1ccccc1N(C(=O)Cc1cccs1)C(C(=O)NC1CCCCC1)c1cccc(F)c1` (centres unmarked) [Compound 13], 0.1 to 1 µM; that for `Cc1ccccc1N(C(=O)Cc1cccs1)C(C(=O)NC(C)(C)C)c1cccc(F)c1` (centres unmarked) [Compound 14], 10 to 100 µM.
Turning to `Cc1ccccc1C(C(=O)NC1CCCCC1)N(C(=O)Cc1cccs1)c1cccc(F)c1` (centres unmarked) [Compound 15], the IC50 was not above 0.1 µM.
Turning to `CC(C)C(C(=O)NC1CCCC1)N(C(=O)Cc1cccs1)c1cccc(F)c1` (centres unmarked) [Compound 16], the IC50 was not below 100 µM.
In the case of `O=C(NC1CCCC1)C(c1ccccc1)N(C(=O)Cc1cccs1)c1ccccc1` (centres unmarked) [Compound 17], the half-inhibitory concentration (IC50) is 0.1 to 1 µM.
Consider `CCC(C(=O)NC1CCCC1)N(C(=O)Cc1cccs1)c1cccc(F)c1` (centres unmarked) [Compound 18], for which the IC50 was not below 100 µM.
On to `COc1ccc(C(C(=O)NC2CCCC2)N(C(=O)Cc2cccs2)c2cccc(F)c2)cc1OC` (centres unmarked) [Compound 19], for which the half-maximal inhibitory concentration (IC50) was not below 100 µM.
The figure for `O=C(NC1CCCC1)C(c1cccc([N+](=O)[O-])c1)N(C(=O)Cc1cccs1)c1cccc(F)c1` (centres unmarked) [Compound 20] is not below 100 µM.
In the case of `CC(C)(C(=O)NC1CCCC1)N(C(=O)Cc1cccs1)c1cccc(F)c1` [Compound 21], the IC50 is not below 100 µM.
Consider `O=C(Cc1cccs1)N(c1cccc(F)c1)C1(C(=O)NC2CCCC2)CCC1` [Compound 22], for which the IC50 was not below 100 µM.
For the molecule `O=C(Cc1cccs1)N(c1cccc(F)c1)C1(C(=O)NC2CCCC2)CCCC1` [Compound 23], the 50% inhibitory concentration (IC50) fell in the range of 10 to 100 µM.
Take `O=C(Cc1cccs1)N(c1cccc(F)c1)C1(C(=O)NC2CCCC2)CCCCC1` [Compound 24]: the IC50 was 1 to 10 µM.
As for `N#Cc1ccc(C(C(=O)NC2CCCC2)N(C(=O)Cc2cccs2)c2cccc(F)c2)cc1` (centres unmarked) [Compound 25], the half-maximal inhibitory concentration (IC50) was not below 100 µM.
In the case of `COc1ccccc1C(C(=O)NC1CCCC1)N(C(=O)Cc1cccs1)c1cccc(F)c1` (centres unmarked) [Compound 26], the half-inhibitory concentration (IC50) is 0.1 to 1 µM.
The figure for `O=C(NC1CCCC1)C(c1ccc(C(F)(F)F)cc1)N(C(=O)Cc1cccs1)c1cccc(F)c1` (centres unmarked) [Compound 27] is not below 100 µM; for `Cc1ccccc1C(C(=O)NC1CCCC1)N(C(=O)CNS(=O)(=O)c1ccccc1)c1cccc(F)c1` (centres unmarked) [Compound 28] it is 0.1 to 1 µM.
